Assay results: US11098081B2, “Epitope tag and method for detection and/or purification of tagged polypeptides” (ChromoTek GmbH, priority 2015, dated 2021)
Ends that are not written are not given here.

Experiments:
BC2-Nb = assay: Biolayer interferometry of immobilised biotinylated BC2T peptides with BC2-Nb; type: binding, Vicugna pacos; conditions: for kon (M^−1s^−1): association rate constant; for Kd: biotinylated peptide on Streptavidin biosensor, BC2-Nb 5-50 nM, 1:1 binding model; for koff (s^−1): dissociation rate constant
Chain of BC2-Nb (as listed by the source): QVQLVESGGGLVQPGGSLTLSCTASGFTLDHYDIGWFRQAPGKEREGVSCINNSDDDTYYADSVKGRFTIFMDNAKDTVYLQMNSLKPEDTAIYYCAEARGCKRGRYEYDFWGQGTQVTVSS
Procedure: Biolayer interferometry (BLI)-based affinity measurements were used to assess two improved variations of the original BC2T sequence (a: […], pTag1 SEQ ID NO:33, b. […], pTag2 SEQ ID NO:34) in comparison with the original BC2T sequence (c: BC2T SEQ ID NO:4) BC2T and improved variations thereof were synthesized as peptides with an N-terminal biotin attached through an ethylene glycol linker and immobilised on Streptavidin biosensors. Binding kinetics were analysed by incubating immobilised peptides with 4-5 concentrations of BC2-Nb (5-50 nM) and evaluated using a 1:1 binding model.
Listed are the dissociation constant (KD), the association […] and dissociation (koff) rate constants and markers of the quality of fit of a 1:1 binding model (χ^2, R^2). The constants reported for original BC2T differ from those listed in Table 1 because kinetics were analysed using a different method.
The affinity measurements of BC2-Nb to BC2T and improved variations pTag1 and pTag2 were performed using biolayer interferometry using a BLItz system instrument (fortéBIO). Biotinylated peptide of BC2T and its variations were immobilised on Streptavidin biosensors (fortéBIO). The loaded sensor was sequentially dipped into BLItz buffer (phosphate buffered saline, 0.1% (m/v) BSA, 0.02% (v/v) Tween20) for 120 s to determine base line signal, in a solution of BC2-Nb in BLItz buffer (concentration of 5-50 nM) for 120 s to determine association and in BLItz buffer for 600 s to determine dissociation. The shaking rate was 1200 rpm. As a reference, each peptide was also incubated with BLItz buffer only according to the protocol above. In a control experiment, Streptavidin biosensors were incubated with BC2-Nb without prior peptide immobilisation. The sensor was regenerated by sequential dips into 10 mM glycine pH 2.0 and BLItz buffer (repeated three times). Raw data were analysed using the software BLItz Pro (fortéBio) and a 1:1 binding model.

BC2 nanotrap [1] = assay: Immunoprecipitation of BC2-tagged proteins from HEK293T cell lysates with the BC2 nanotrap; type: binding; conditions: soluble protein fraction of HEK293T cells, immunoblot
Chain of BC2 nanotrap (as listed by the source): as above
Procedure: (d) The BC2 nanotrap binds BC2-tagged proteins from human cell lysates irrespectively whether the BC2 tag is located at the N- or the C-terminus. For immunoprecipitation of BC2-tagged proteins soluble protein fractions of HEK293T cells expressing BC2TeGFP, eGFPBC2T or solely eGFP were incubated with the BC2 nanotrap as described in (a). Input (I), non-bound (NB) and bound fractions (B) were separated by SDS-PAGE and visualized either by Coomassie Blue staining (top) or immunoblot analysis (bottom).
(a) For immunoprecipitation soluble protein fractions of HEK293T cells either expressing eGFP-PCNA (control) or BC2-tagged eGFP-PCNA (eGFP-PCNABC2T) (left panel) or mCherry-Vimentin (mCherry-VIM, control) or BC2-lagged mCherry-VIM (mCherry-VIMBC2T) were incubated with the BC2 nanotrap. Input (I), non-bound (NB) and bound fractions (B) were separated by SDS-PAGE and visualized either by immunoblot analysis using anti-PCNA or anti-Vimentin antibodies (upper panel). As loading control, blots were probed with an anti-GAPDH antibody (lower panel).
The BC2-capture system was further analyzed for one-step purification of recombinant proteins derived from human cells Specifically, it was investigated whether the terminal position of the BC2-tag has an impact on binding. […]
Next, it was tested whether the BC2 nanotrap can precipitate BC2-tagged cellular components of the intermediate filaments or the nuclear replication machinery BC2T was genetically fused either to mCherry-vimentin (mCherry-VIMBC2T) or eGFP-PCNA (eGFP-PCNABC2T) and both constructs were expressed in HEK293T cells. […] Soluble protein extracts were incubated with the BC2 nanotrap and whole lysate (input), non-bound and bound fractions were analyzed by immunoblotting using anti-vimentin or anti-PCNA antibodies. […]
HEK293T cells transiently expressing eGFP, eGFPBC2T or BC2TeGFP, eGFP-PCNA, eGFP-PCNABC2T, mCherry-Vimentin, mCherry-VimentinBC2T were washed and harvested in phosphate buffered saline (PBS), snap-frozen in liquid nitrogen and stored at −20° C. Cell pellets were homogenized in 200 μl lysis buffer (10 mM Tris/Cl pH 7.3, 150 mM NaCl, 0.5% NP40, 1 μg DNaseI, 2 mM MgCl2, 2 mM PMSF, 1× protease inhibitor mix M (Serva) by repealed pipetting for 40 min on ice. After a centrifugation step (10 min at 18.000×g) the protein concentration of each lysate was determined using a Pierce BCA Protein Assay Kit (Thermo Fisher Scientific) according to manufacturer's protocol and the protein solutions were adjusted with dilution buffer (10 mM Tris/Cl pH 7.5, 150 mM NaCl, 2 mM PMSF) to a concentration of 1 mg/ml, 2% of the supernatant were added to SDS-containing sample buffer (referred to as input). […] Samples were analyzed by SDS-PAGE followed by immunoblotting. […]

BC2 nanotrap [2] = assay: Immunoprecipitation of BC2-tagged GFP from E. coli lysate with the BC2 nanotrap; type: binding; conditions: soluble protein fraction of E. coli, SDS-PAGE, Coomassie and/or anti-GFP immunoblot
BC2 nanotrap [3] = assay: Elution of bound BC2-tagged protein from the BC2 nanotrap; type: binding; conditions: for GFPBC2T detected in elution fraction: competitive elution
Procedure: […] Aliquots of released (R) and bound (B) fractions were analyzed by immunoblotting with an anti-GFP antibody.
For the elution experiments 40 μl of BC2 nanotrap (slurry) were incubated with 400 μl soluble protein extract (c=1 mg/ml) derived from E. coli cells expressing GFPBC2T for 1 h at 4° C. on an end-over-end rotor. After a centrifugation step (2500×g, 4° C., 2 min) the supernatant was discarded and the beads were washed four times in ice-cold PBS including a cup change after the second washing step. Subsequently, beads were pelleted and incubated with 80 μl of the indicated elution conditions for 15 min at RT. […] 0.1 mM or 1 mM BC2-peptide dissolved in 0.2 M Tris/Cl pH 7.4, 150 mM NaCl; acidic elution: 0.2 M Glycine-HCl adjusted to pH 1. pH 2 or pH 3; alkaline elution: 0 mM. 1 mM, 10 mM or 100 mM NaOH; elution with sodium thiocyanate. 0 M, 1 M, 2 M, or 3 M NaSCN. The eluates were collected and boiled in 1×SDS containing sample buffer and the remaining beads were washed twice in PBS before boiling in 40 μl 2× sample buffer. 10% of each elution (release, R) and bead bound (bound, B) fraction were analyzed by SDS-PAGE and immunoblotting using an anti-GFP antibody.

ADRVRAVSHWSS [pTag2]
kon (M^−1s^−1) (BC2-Nb): 1.1 ± 0.1 × 10^5 M^−1s^−1
Kd (BC2-Nb): 1.9 nM
koff (s^−1) (BC2-Nb): 2.0 ± 0.1 × 10^−4 s^−1

BC2TeGFP: modified GFP comprising the BC2-tag on the N-terminus, expressed in HEK293T cells (PDRKAAVSHWQQ-eGFP; also: BC2 tag fused to the N-terminus of eGFP)
precipitation by the BC2 nanotrap from HEK293T lysate (BC2 nanotrap [1]): efficiently precipitated

GFPBC2T-8: GFP C-terminally fused to BC2T-8 ({GFP}-RKAAVSHW; also: BC2T-8 tag fused to the C-terminus of GFP)
precipitation by the BC2 nanotrap from E. coli lysate (BC2 nanotrap [2]): in a comparable manner as GFP tagged with the original BC2T

GFPBC2T-10: GFP C-terminally fused to BC2T-10 ({GFP}-PDRKAAVSHW; also: BC2T-10 tag fused to the C-terminus of GFP)
precipitation by the BC2 nanotrap from E. coli lysate (BC2 nanotrap [2]): in a comparable manner as GFP tagged with the original BC2T

GFPBC2T: GFP with a C-terminal BC2 tag, expressed in E. coli
precipitation by the BC2 nanotrap from E. coli lysate (BC2 nanotrap [2]): quantitatively precipitates
elution with MgCl2 (BC2 nanotrap [3]; MgCl2 0.5 M-4 M, data not shown): does not elute
release of bound protein (BC2 nanotrap [3]; alkaline elution, pH 11 and 12): 40-80%

PDRKAAVSHW (Epitope peptide 10 aa) [BC2T-10]
precipitation by the BC2 nanotrap from E. coli lysate (BC2 nanotrap [2]): efficiently recognized

PDRKAAVSHWQQ [BC2T]
GFPBC2T detected in elution fraction (BC2 nanotrap [3]; 0.1 mM BC2 peptide): ~60%
GFPBC2T detected in elution fraction (BC2 nanotrap [3]; 1 mM BC2 peptide): ~80%
kon (M^−1s^−1) (BC2-Nb): 1.9 ± 0.1 × 10^5 M^−1s^−1
Kd (BC2-Nb): 2.6 nM
koff (s^−1) (BC2-Nb): 5.0 ± 0.1 × 10^−4 s^−1

PDRVRAVSHWSS [pTag1]
dissociation rate constant koff slower than for original BC2T (BC2-Nb): 7 ×
kon (M^−1s^−1) (BC2-Nb): 9.2 ± 0.5 × 10^4 M^−1s^−1
Kd (BC2-Nb): 0.7 nM
koff (s^−1) (BC2-Nb): 6.8 ± 0.4 × 10^−5 s^−1

RKAAVSHW (Epitope peptide 8 aa) [BC2T-8]
precipitation by the BC2 nanotrap from E. coli lysate (BC2 nanotrap [2]): efficiently recognized

eGFP-PCNABC2T: BC2T genetically fused to the C-terminus of eGFP-PCNA
precipitation by the BC2 nanotrap from HEK293T lysate (BC2 nanotrap [1]): efficiently precipitated

eGFPBC2T: modified GFP comprising the BC2-tag on the C-terminus, expressed in HEK293T cells (eGFP-PDRKAAVSHWQQ; also: BC2 tag fused to the C-terminus of eGFP)
precipitation by the BC2 nanotrap from HEK293T lysate (BC2 nanotrap [1]): efficiently precipitated

mCherry-VIMBC2T: BC2T genetically fused to the C-terminus of mCherry-Vimentin
precipitation by the BC2 nanotrap from HEK293T lysate (BC2 nanotrap [1]): efficiently precipitated
